Experimental data taken from publication PMC11280325, “Design, Synthesis, and Characterization of Novel Thiazolidine-2,4-Dione-Acridine Hybrids as Antitumor Agents” (Molecules, 2024).
Like-named read-outs stand apart in the source and are kept apart here.

Experiments:
A2058 [1] = assay: MTT assay, A2058; type: cell-based; settings: human melanoma, 48 h incubation
In short: (§1)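 Cells (HeLa, HCT116 in RPMI 1640; A2058, PATU 8902 in DMEM; 10% FBS) were seeded at 5 × 10^3 to 10 × 10^3 per well, treated after 24 h with compound at 5, 10, 20 and 50 µmol/L for 48 h, then MTT-stained; formazan dissolved in 10% SDS, absorbance read at 540 nm.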

Bj-5ta [2] = assay: MTT assay, BJ-5ta non-cancerous fibroblasts; type: cell-based, human; settings: non-cancerous dermal fibroblasts, 48 h incubation
In short: (§2)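 Human MCF-10A breast epithelial and BJ-5ta dermal fibroblast cells seeded 24 h, then exposed to compounds at 5, 10, 20 and 50 µmol/L for 48 h at 37 °C. MTT with SDS solubilization, absorbance 540 nm. IC50 from nonlinear regression, ≥3 independent repeats.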

PATU [3] = assay: MTT assay, PATU 8902; type: cell-based, human; settings: pancreas adenocarcinoma, 48 h incubation
In short: as §1

HCT116 [4] = assay: MTT assay, HCT116; type: cell-based, human; settings: colorectal adenocarcinoma, 48 h incubation
In short: as §1

HeLa [5] = assay: MTT assay, HeLa; type: cell-based, human; settings: cervical adenocarcinoma, 48 h incubation
In short: as §1

Hep G2 [6] = assay: MTT assay, Hep G2; type: cell-based, human; settings: hepatocellular carcinoma, 48 h incubation
In short: (§3)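 Antiproliferative IC50 is derived by nonlinear regression from MTT colorimetry. Cells receive four compound concentrations (5 to 50 µmol/L) for 48 h under standard culture; formazan is read at 540 nm after SDS solubilisation.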

A549 [7] = assay: MTT assay, A549; type: cell-based, human; settings: lung adenocarcinoma, 48 h incubation
In short: as §3

[8] = target: T1, bovine serum albumin (BSA) (Bos taurus, UniProt P02769); assay: BSA fluorescence quenching (Stern–Volmer); type: binding; settings: for Stern–Volmer quenching constant Ksv: BSA 1 μM, excitation 280 nm, PBS pH 7.4, 24 °C; for bimolecular quenching rate constant kq: kq = Ksv/τ0, τ0 = 10^−8 s, BSA, pH 7.4, 24 °C
T1 construct: purchased Sigma-Aldrich
Description: BSA contains 582 amino acid residues, including tyrosine (Tyr), phenylalanine (Phe), and tryptophan (Trp). The tryptophan residues located at positions 134 and 212 being predominantly responsible for its intrinsic fluorescence due to their higher quantum yield than the other amino acids. When excitation occurs at 280 nm, both Trp and Tyr contribute to the fluorescence of the protein [44]. In this study, we investigated the interaction of newly synthesized derivatives (7e·2HCl, 12d·2HCl, 13c·HCl, and 13d), which have promising anticancer properties, with BSA. BSA (1 μM) was titrated with increasing concentration of acridine derivatives, and fluorescence spectra were recorded in the range of 300–500 nm (Figure 10). The fluorescence quenching for the quencher (Q) and protein interaction was analyzed using the Stern–Volmer equation [45, 46]: F0/F=1+Ksv [Q]=1+Kq τ0[Q] where F0 and F denote the fluorescence intensities in the absence and presence of the quencher Q, respectively. Ksv is the Stern–Volmer constant, kq is the bimolecular quenching rate constant (kq = Ksv/τ0), and τ0 is the lifetime of BSA in the absence of quencher, which is equal to 10^−8 s for the tryptophan fluorescence of proteins.
The fluorescence spectra were recorded using a Varian Cary Eclipse spectrofluorometer (Palo Alto, CA, USA) in a 10 mM phosphate-buffered saline solution (pH = 7.4) at 24 °C. The spectra were measured with an excitation wavelength of 280 nm using a slit width of 10 nm for both the excitation and emission beams over a range of 300–450 nm. Spectrofluorometric BSA titrations were performed with increasing concentrations of acridine derivatives.

MCF-10A [9] = assay: MTT assay, MCF-10A non-cancerous cells; type: cell-based, human; settings: non-cancerous epithelial breast cells, 48 h incubation
In short: as §2

A2780 = assay: MTT assay, A2780; type: cell-based, human; settings: ovarian adenocarcinoma, 48 h incubation
In short: as §3

Hep G2 [10] = settings: cisplatin reference, 48 h; cited from earlier work
MCF-10A [11] = settings: cisplatin reference, 48 h; cited from earlier work
HCT116 [12] = settings: cisplatin reference, 48 h; cited from earlier work
A549 [13] = settings: cisplatin reference, 48 h; cited from earlier work
Bj-5ta [14] = settings: cisplatin reference, 48 h; cited from earlier work
PATU [15] = settings: cisplatin reference, 48 h; cited from earlier work
HeLa [16] = settings: cisplatin reference, 48 h; cited from earlier work
A2058 [17] = settings: cisplatin reference, 48 h; cited from earlier work

T1 sequence (P02769 25-607): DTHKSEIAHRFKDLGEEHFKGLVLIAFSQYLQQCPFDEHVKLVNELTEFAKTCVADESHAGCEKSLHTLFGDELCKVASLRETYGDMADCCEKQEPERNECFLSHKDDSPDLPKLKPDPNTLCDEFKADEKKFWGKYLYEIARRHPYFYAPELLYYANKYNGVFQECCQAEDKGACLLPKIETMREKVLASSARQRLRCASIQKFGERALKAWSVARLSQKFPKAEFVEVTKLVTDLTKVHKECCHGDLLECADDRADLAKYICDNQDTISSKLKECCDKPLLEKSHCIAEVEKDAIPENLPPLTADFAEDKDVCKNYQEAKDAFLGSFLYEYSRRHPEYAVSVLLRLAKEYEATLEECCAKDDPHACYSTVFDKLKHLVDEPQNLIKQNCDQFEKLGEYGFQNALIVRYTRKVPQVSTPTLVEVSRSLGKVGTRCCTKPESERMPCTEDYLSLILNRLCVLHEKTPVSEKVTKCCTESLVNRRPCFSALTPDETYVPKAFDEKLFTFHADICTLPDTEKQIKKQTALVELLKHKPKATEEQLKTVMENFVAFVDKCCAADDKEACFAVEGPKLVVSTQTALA

SMILES | IC50 (A2058 [1]) | IC50 (Bj-5ta [2]) | IC50 (PATU [3]) | IC50 (HCT116 [4]) | IC50 (HeLa [5]) | IC50 (Hep G2 [6]) | IC50 (A549 [7]) | Stern–Volmer quenching constant Ksv [8] | bimolecular quenching rate constant kq [8] | other results
COc1cc(/C=C2\SC(=O)N(Cc3c4ccccc4nc4ccccc34)C2=O)ccc1OCC(=O)Nc1ccc([N+](=O)[O-])cc1.Cl.Cl [12d·2HCl, 2-(4-{[(5Z)-3-[(Acridin-9-yl)methyl]-2,4-dioxo-1,3-thiazolidin-5-ylidene]methyl}-2-methoxyphenoxy)-N-(4-nitrophenyl)acetamide dihydrochloride] | > 50 µM | > 50 µM | 30.8 ± 6.2 µM | 17.6 ± 4.5 µM | 19.3 ± 5.5 µM | > 50 µM | > 50 µM | 10.47 × 10^4 [M^−1] | 10.47 × 10^12 [M^−1·s^−1] | 
Cl.Cl.O=C(COc1ccc(/C=C2\SC(=O)N(Cc3c4ccccc4nc4ccccc34)C2=O)cc1)Nc1ccccc1C(F)(F)F [Compound 7e·2HCl, 2-(4-{[(5Z)-3-[(Acridin-9-yl)methyl]-2,4-dioxo-1,3-thiazolidin-5-ylidene]methyl}phenoxy)-N-[2-(trifluoromethyl)phenyl]acetamide dihydrochloride] | > 50 µM | > 50 µM | 11 ± 2.2 µM | 8.9 ± 3.1 µM | 20.5 ± 3.8 µM | > 50 µM | 34.3 ± 5.7 µM | 10.74 × 10^4 [M^−1] | 10.74 × 10^12 [M^−1·s^−1] | IC50 (MCF-10A [9]): > 50 µM; IC50 (A2780): > 50 µM
N.N.[Cl][Pt][Cl] [Cisplatin] |  |  |  |  |  |  |  |  |  | IC50 (Hep G2 [10]): 14 ± 2.8 µM; IC50 (MCF-10A [11]): 25.9 ± 2.1 µM; IC50 (HCT116 [12]): 14.5 ± 2.5 µM; IC50 (A549 [13]): 17.3 ± 2.2 µM; IC50 (Bj-5ta [14]): 31 ± 0.7 µM; IC50 (PATU [15]): 20.7 ± 3.1 µM; IC50 (HeLa [16]): 30.4 ± 1.4 µM; IC50 (A2058 [17]): 18.8 ± 5.5 µM
COc1cc(/C=C2\SC(=O)N(Cc3cccc4cc5ccccc5nc34)C2=O)ccc1OCC(=O)Nc1ccc([N+](=O)[O-])cc1 [Compound 13d, 2-(4-{[(5Z)-3-[(Acridin-4-yl)methyl]-2,4-dioxo-1,3-thiazolidin-5-ylidene]methyl}-2-methoxyphenoxy)-N-(4-nitrophenyl)acetamide] |  |  |  | 4.9 ± 2.9 µM |  |  |  | 9.59 × 10^4 [M^−1] | 9.59 × 10^12 [M^−1·s^−1] | IC50 (A2058 [1]; Homo sapiens, A2058, 48 h): 38.1 ± 1.65 µM; IC50 (MCF-10A [9]; Homo sapiens, MCF-10A, 48 h): > 50 µM; IC50 (Bj-5ta [2]; Homo sapiens, Fibroblast, 48 h): 38.5 ± 4.5 µM; IC50 (PATU [3]; Homo sapiens, PaTu 8902, 48 h): > 50 µM; IC50 (HeLa [5]; Homo sapiens, HeLa, 48 h): 36.2 ± 5.23 µM; IC50 (A2780; Homo sapiens, A2780, 48 h): > 50 µM; IC50 (Hep G2 [6]; Homo sapiens, HepG2, 48 h): > 50 µM; IC50 (A549 [7]; Homo sapiens, A549, 48 h): 46.9 ± 3.1 µM; melting point: 254 to 257 °C (dec.)
